Laboratory results taken from paper PMC9694488, “Amyloid beta and its naturally occurring N-terminal variants are potent activators of human and mouse formyl peptide receptor 1” (The Journal of Biological Chemistry, 2022).
“Also recorded” adds a separate entry of the source.

What was measured:
glial cells = settings: cited from earlier work
Text: In summary, our study provides a systematic overview over the capability of different mouse and human FPRs to interact with Aβ in different buffer systems. To our knowledge, we are the first to report an activation of hFPR3 by Aβ and the first to identify N-abridged Aβ fragments as activators of FPRs.

hFPR3 = test: Ca2+ imaging, HEK293T transiently transfected with hFPR3; settings: Ca2+ imaging, transfected HEK293T + Gα16, Calbryte 520, C1 buffer pH 7.2; n = 3, N = 1
Procedure: (§1) All peptides were thawed at room temperature approximately 1 h before each functional experiment, as this time was needed to prepare the compound plates for each measurement.
(§2) HEK293T cells (ATCC) were cultured in Dulbecco’s Modified Eagle’s medium (DMEM, Biowest) supplemented with 10% (v/v) heat-inactivated fetal calf serum (FCS, Pan Biotech), 1 unit/ml penicillin-streptomycin (Biowest), and 2 mM L-glutamine (Biowest) until 80% confluence. For transfection, approximately 2000 cells were seeded in each well of poly-D-lysine–coated (PDL) (10 μg/ml in PBS, Sigma) black optical 96-well μCLEAR-plates (Greiner Bio-One). Cells were transfected after 24 h using jetPEI (Polyplus-transfection SA) with 0.125 μg of DNA plasmids encoding the respective receptors and equal amounts of a plasmid encoding the G protein subunit Gα16 since this subunit is needed to trigger FPR-dependent calcium signals in HEK293 cells ([50], [70]). The medium of transfected cells was changed 24 h after transfection. For mock transfections, the proportion of the FPR-containing plasmids were substituted by an empty pcDNA3.1 vector.
(§3) Cell population responses of transfected HEK293T cells and U87 cells were recorded using a Flexstation III microplate reader (Molecular Devices). Briefly, cells were incubated with 2 μM Calbryte 520 AM (AAC Bioquest) for 2 h at room temperature in C1 assay buffer with 5 mM glucose (Carl Roth). Before each experiment, cells were rinsed three times with C1. Experiments with HEK293T cells were conducted 48 h after transfection, while experiments with U87 cells were performed 24 h after seeding. Acquisition of baseline fluorescence was performed for 25 s before ligand application, and cell population response was measured for 125 s after application.

hFPR2 = test: Ca2+ imaging, HEK293T transiently transfected with hFPR2; type: cell-based, human; settings: n = 3, N = 1; for threshold for minimal detectable activation, hFPR2: Ca2+ imaging, transfected HEK293T + Gα16, Calbryte 520, C1 buffer pH 7.2; for hFPR2 response concentration: concentration response curves
Procedure: as §1, §2, §3

mouse and human FPR1 = test: Ca2+ imaging, HEK293T with mouse and human FPR1 taken together; type: cell-based
U87 cells [1] = test: Chemotaxis assay, U87 cells; type: cell-based, human; settings: IncuCyte S3, ClearView plate, 24 h, 0.5% FCS; n = 3, N = 1
Procedure: Cell migration assays were performed and analyzed with an IncuCyte S3 Life Cell Imaging System (EssenBio Science). […] Approximately, 1000 cells were placed into the top chamber of each well of a 96-well ClearView Plate (EssenBioscience). Chemoattractants were mixed in 200 μl medium and then placed in the corresponding bottom chambers. Image acquisition was performed hourly for 24 h on both sides of a membrane separating the top and bottom chambers. Subsequent analysis was performed using the IncuCyte S3 software.

mFpr2 = test: Ca2+ imaging, HEK293T transiently transfected with mFpr2; type: cell-based, mouse; settings: n = 3, N = 1; for threshold for minimal detectable activation, mFpr2: Ca2+ imaging, transfected HEK293T + Gα16, Calbryte 520, C1 buffer pH 7.2; for mFpr2 response concentration: concentration response curves
Procedure: as §1, §2, §3

mFpr1 = test: Ca2+ imaging, HEK293T transiently transfected with mFpr1; type: cell-based, mouse; settings: n = 3, N = 1; for threshold for minimal detectable activation, mFpr1: Ca2+ imaging, transfected HEK293T + Gα16, Calbryte 520, C1 buffer pH 7.2; for sensitivity relative to full-length Aβ1-42, mFpr1: concentration response curves
hFPR1, hFPR2, hFPR3 = test: Ca2+ imaging, human FPRs taken together; type: cell-based; settings: transfected HEK293T
U87 cells [2] = test: Ca2+ imaging, U87 cells; settings: n = 3, N = 1
Procedure: Peptides in HBSS or Tris–NaCl were dissolved in an ultrasonic bath as described above. […] The Aβ17-40 peptide used throughout the main text was purchased from Anaspec/MoBiTec and validated with Aβ17-40 peptides from Sigma-Aldrich and Synpeptide. Aβ11-40 was obtained from Peptides&Elephants. […] Tert-Boc-FLFL (tBoc2) was purchased from Bachem and dissolved in DMSO at 30 mM. f-MLFYFS (Psy-SP6) and f-MAMKKL (Sal-SP4) were obtained from VCPBIO and dissolved at 10 mM in DMSO (Psy-SP6) or at 1 mM in C1 (SP4), respectively. WKWMVm-NH2 and WKWMVm-CHO were purchased from Proteogenix and VCPBIO, respectively, and dissolved as 1 mM stock solutions in C1. fMLF was purchased from Sigma-Aldrich and also dissolved at 1 mM in C1. All peptides were thawed at room temperature approximately 1 h before each functional experiment, as this time was needed to prepare the compound plates for each measurement.
U87 MG cells (CLS) were cultured in Minimum Essential medium (Biowest) supplemented with 10% (v/v) heat-inactivated FCS (Pan Biotech), 1 unit/ml penicillin-streptomycin (Biowest), 2 mM L-glutamine (Biowest), and 1 unit/ml non-essential amino acids (Biowest) until 50 to 60% confluence. For calcium imaging and immunostaining, on average 2500 cells were seeded in each well of PDL-coated (10 μg/ml in PBS, Sigma) black optical 96-well μCLEAR-plates (Greiner Bio-One).
as §3

hFPR1 = test: Ca2+ imaging, HEK293T transiently transfected with hFPR1; type: cell-based, human; settings: n = 3, N = 1; for threshold for minimal detectable activation, hFPR1: Ca2+ imaging; for sensitivity relative to full-length Aβ1-42, hFPR1: concentration response curves
human and mouse FPRs = test: Ca2+ imaging, FPR-transfected HEK293T (several human and mouse FPRs taken together); type: cell-based; settings: n = 3, N = 1; for Ca2+ responses on FPRs: 5 μM
Procedure: as §1, §2, §3

[3] = transfected HEK293T + Gα16, Calbryte 520, assay buffer C1 pH 7.2, Flexstation III, peptide stock 5 mM in DMSO

Substance	activation of glial cells (glial cells)	threshold for minimal detectable activation, hFPR3 (hFPR3)	threshold for minimal detectable activation, hFPR2 (hFPR2)	hFPR2 response concentration (hFPR2)	activation of mouse and human FPR1 (in words) (mouse and human FPR1)	migration (chemotaxis) of U87 cells (U87 cells [1])	threshold for minimal detectable activation, mFpr2 (mFpr2)	mFpr2 response concentration (mFpr2)	threshold for minimal detectable activation, mFpr1 (mFpr1)	sensitivity relative to full-length Aβ1-42, mFpr1 (mFpr1)	response of hFPRs (in addition to hFPR2) (hFPR1, hFPR2, hFPR3)	Ca2+ response of U87 cells (U87 cells [2])	U87 concentration response curve compared with FPR-transfected HEK293T cells (U87 cells [2])	threshold for minimal detectable activation, hFPR1 (hFPR1; [3])	sensitivity relative to full-length Aβ1-42, hFPR1 (hFPR1)	susceptibility of FPR responses to manufacturer-dependent effects (human and mouse FPRs; 5 μM Aβ17-40 from Anaspec, Synpeptide, Sigma-Aldrich)	Ca2+ responses on FPRs (human and mouse FPRs)	activation of human glial cells (glial cells; human glial cells)	threshold for minimal detectable activation, hFPR1 (hFPR1; transfected HEK293T + Gα16, Calbryte 520, assay buffer C1 pH 7.2, peptide stock 30 μM in C1)
Aβ17-40: N-abridged naturally occurring Aβ variant, from Anaspec, validated with Sigma-Aldrich and Synpeptide peptides (LVFFAEDVGSNKGAIIGLMVGGVV; Amyloid-beta protein 40; UniProt P05067 688-711, looked up, fragment)	shown to activate glial cells	1 µM	1 µM	only responded to micromolar concentrations	very potent activators of mouse and human FPR1, acting at nanomolar concentrations; also recorded: drastically lower concentrations than longer peptides	Aβ11-40 but not Aβ17-40 evoked cell migration; also recorded: only Aβ11-40 but not Aβ17-40 induced migration; also recorded: Aβ11-40– but not Aβ17-40–induced chemotaxis of U87 cells	1 µM	only responded to micromolar concentrations	30 nM	more than 10 fold	all other hFPRs also responded	induced a strong calcium flux; also recorded: pronounced activation of U87 cells	clear correlation with the hFPR1 response; also recorded: remarkably similar to hFPR1	100 nM	more than 10 fold	less susceptible to manufacturer-dependent effects than full length Aβ	elicited responses on all FPRs that we could previously activate with the full-length Aβ1-42		
Aβ11-40: N-abridged naturally occurring Aβ variant, from Peptides&Elephants	shown to activate glial cells	1 µM	1 µM	only responded to micromolar concentrations	very potent activators of mouse and human FPR1, acting at nanomolar concentrations; also recorded: drastically lower concentrations than longer peptides	Aβ11-40 but not Aβ17-40 evoked cell migration; also recorded: only Aβ11-40 but not Aβ17-40 induced migration; also recorded: Aβ11-40– but not Aβ17-40–induced chemotaxis of U87 cells	1 µM	only responded to micromolar concentrations	30 nM	more than 10 fold	all other hFPRs also responded	induced a strong calcium flux; also recorded: pronounced activation of U87 cells	clear correlation with the hFPR1 response; also recorded: remarkably similar to hFPR1	100 nM	more than 10 fold		elicited responses on all FPRs that we could previously activate with the full-length Aβ1-42		
Aβ17-43: Aβ fragment of earlier studies (LVFFAEDVGSNKGAIIGLMVGGVVIAT; Amyloid-beta protein 42; UniProt P05067 688-714, looked up, fragment)																		only lead to a partial activation of human glial cells	
Aβ1-40: Amyloid beta peptide, human WT sequence, from Anaspec/MoBiTec		3 µM	3 µM				5 µM		500 nM		all other hFPRs also responded								3000 nM
